According to patent US9242933B2 (AbbVie Deutschland GmbH & Co. KG, priority 2007, dated 2016):

Molecular target: T1, human mGlu2 receptor (Homo sapiens, UniProt Q14416)
T1 construct: expressed in transfected cells; host or cells: HEK293
Experiment: FLIPR intracellular Ca2+ assay, potentiation of glutamate response in HEK293 clone expressing mGlu2 receptor, rGLAST and Galpha16
Format: cell-based
Conditions: 1 μM glutamate added ten minutes after test compound, HEK293 cells with human mGlu2, rGLAST, Galpha16, read-out: EC50 values of potentiation effect to glutamate
From the text: The compounds of the present invention can be tested e.g. by evaluating intracellular Ca^2+ concentrations in cells permanently expressing human mGlu receptor, the rat glutamate transporter rGLAST and the Galpha16 subunit of the G-protein complex under standard conditions in a fluorometric imaging plate reader (FLIPR, Molecular Devices, Union City, Calif. 94587, USA) by measuring the response of the cells to a test compound in the absence of presence of glutamate. The FLIPR assay is a common functional assay to monitor native or recombinant Galphaq-coupled receptors, and native or recombinant receptors normally linked to other G-protein signalling cascades, which are coupled to calcium through co-expression of an alpha subunit of a promiscuous or chimeric G-protein. In the assay the increase of intracellular calcium is measured through a calcium-dependent fluorescent dye (e.g. Fluo-4 AM) in the FLIPR instrument.
For the purpose of the present study, a cell line permanently expressing a human mGlu receptor, such as the mGlu2 receptor, the rat glutamate transporter rGLAST and the GalphaG16 may be generated by transfection as described in the examples. For selection of a suitable cell clone and also the subsequent measurements, the selected clone the cells will be plated on suitable multiwell plates in a suitable medium (e.g. DMEM Glutamax (GIBCO #21885-025)/10% dialyzed FCS). Cells may be selected by gentamycin treatment as described in the examples. Cells will then be loaded with a suitable Ca^2+ sensitive fluorescence dye, e.g. with 2 μM Fluo-4 AM (Molecular Probes, F14201). Cells will then be washed with a suitable buffer (e.g. HEPES) and the thus treated plates will be measured in a fluorometric imaging plate reader (e.g. FLIPR, Molecular Devices, Union City, Calif. 94587, USA).
The compounds of the present invention were tested in the above-described FLIPR assay using the selected cell clone. Increased intracellular calcium levels were quantified following addition of test compound (agonism), as well as following addition of a submaximal concentration of glutamate (potentiation).
For the determination of the effect of the test compound by itself (agonism) or by increasing the response to a submaximal concentration (e.g. 1 μM) of glutamate (potentiation), the resulting signal is determined by subtraction of the background fluorescence from the maximal fluorescent peak height of the respective response. In the FLIPR instrument the compound is given to the cell and its fluorescence response quantified by the FLIPR instrument (agonism). The concentration at which the compound exerts half its maximal effect is named the ‘effective concentration 50’ or ‘EC50’. The maximal effect induced by the test substance is normalized to the maximal effect exerted by 100 μM glutamate (set at 100%).
After addition of the test compound to the plate, a submaximal concentration of glutamate (e.g. 1 μM glutamate) will be added. A potentiator enhances the response of the receptor to glutamate. The response to glutamate in the presence of test compound is quantified. The concentration at which the test compound is able to exert half its maximal potentiation effect to glutamate is named the ‘EC50’. The maximal response to the submaximal concentration of glutamate (e.g. 1 micromolar glutamate) in the presence of test compound is normalized to the maximal effect exerted by 100 micromolar glutamate (set at 100%). Least squares curve fitting with a four-parameter equation is then applied to the resulting dose-response curve to determine the resulting EC5O values (Graph Pad Prism).
For the purpose of the present study, a cell line permanently expressing the human mGlu2 receptor, the rat glutamate transporter rGLAST and the alpha subunit of G16 was generated by transfection. […]

T1 sequence (Q14416 19-872): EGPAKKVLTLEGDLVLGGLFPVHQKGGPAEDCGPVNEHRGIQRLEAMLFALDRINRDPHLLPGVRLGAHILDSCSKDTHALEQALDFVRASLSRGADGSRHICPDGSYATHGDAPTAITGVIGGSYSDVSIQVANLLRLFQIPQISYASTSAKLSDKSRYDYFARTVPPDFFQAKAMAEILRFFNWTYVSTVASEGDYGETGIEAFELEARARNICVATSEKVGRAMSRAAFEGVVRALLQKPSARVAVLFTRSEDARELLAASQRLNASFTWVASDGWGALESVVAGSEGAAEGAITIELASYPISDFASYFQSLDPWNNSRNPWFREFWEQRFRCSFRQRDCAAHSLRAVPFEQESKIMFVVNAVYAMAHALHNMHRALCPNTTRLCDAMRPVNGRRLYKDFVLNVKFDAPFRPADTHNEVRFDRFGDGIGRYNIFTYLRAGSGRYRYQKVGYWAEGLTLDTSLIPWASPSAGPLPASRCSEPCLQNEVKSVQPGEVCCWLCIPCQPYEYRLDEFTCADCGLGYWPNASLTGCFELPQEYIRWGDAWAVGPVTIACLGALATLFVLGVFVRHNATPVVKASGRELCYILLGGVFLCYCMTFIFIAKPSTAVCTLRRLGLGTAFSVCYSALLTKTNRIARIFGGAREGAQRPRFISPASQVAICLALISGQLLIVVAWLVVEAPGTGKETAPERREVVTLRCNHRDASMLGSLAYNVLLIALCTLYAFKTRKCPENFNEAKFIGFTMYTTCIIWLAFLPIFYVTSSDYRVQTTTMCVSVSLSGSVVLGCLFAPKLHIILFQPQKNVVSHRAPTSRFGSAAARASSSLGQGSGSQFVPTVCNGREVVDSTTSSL

Row | EC50 [nM] | Structure (SMILES)
1 | < 1000 | CCCC(=O)c1ccc(NCc2c[nH]nc2C(C)(C)C)cc1 [Example 77, 1-{4-[(3-tert-Butyl-1H-pyrazol-4-ylmethyl)amino]phenyl}butan-1-one]
2 | 1000 to 10000 | CCCC(=O)c1ccc(NCc2cn(-c3ccccc3)nc2-c2ccc(F)cc2)cc1 [Example 221, 1-(4-{[3-(4-Fluorophenyl)-1-phenyl-1H-pyrazol-4-ylmethyl]-amino}-phenyl)-butan-1-one]
3 | < 1000 | CCCC(=O)c1ccc(NCc2cnn(C)c2-c2ccc(C(F)(F)F)cc2)cc1 [Example 375, 1-(4-{[1-Methyl-5-(4-trifluoromethyl-phenyl)-1H-pyrazol-4-ylmethyl]-amino}-phenyl)-butan-1-one]
4 | 1000 to 10000 | CCCC(=O)c1ccc(NCc2nc3ccccc3n2C)cc1 [Example 226, 1-{4-[(1-Methyl-1H-benzoimidazol-2-ylmethyl)-amino]-phenyl}-butan-1-one]
5 | 1000 to 10000 | CCCC(=O)c1ccc(N(Cc2ccc(N(C)C)nc2)S(=O)(=O)CC(F)(F)F)cc1 [Example 391, 2,2,2-Trifluoro-ethanesulfonic acid (4-butyryl-phenyl)-(6-dimethylamino-pyridin-3-ylmethyl)-amide]
6 | 1000 to 10000 | CCCC(=O)c1ccc(NCc2ccc(N(C)C)nc2)cc1 [Example 387, 1-{4-[(6-Dimethylamino-pyridin-3-ylmethyl)-amino]-phenyl}-butan-1-one]
7 | < 1000 | CCCCCC(=O)c1ccc(OCc2c[nH]nc2-c2ccc(C(F)(F)F)cc2)cc1 [Example 491, 1-{4-[3-(4-Trifluoromethyl-phenyl)-1H-pyrazol-4-ylmethoxy]-phenyl}-hexan-1-one]
8 | < 1000 | CCCN1Cc2cc(NCc3c[nH]nc3-c3cccc(Cl)c3)ccc2C1=O [Example 577, 5-{[3-(3-Chloro-phenyl)-1H-pyrazol-4-ylmethyl]-amino}-2-propyl-2,3-dihydro-isoindol-1-one]
9 | < 1000 | CCCCN1Cc2cc(OCc3c[nH]nc3-c3cccc(C(F)(F)F)c3)ccc2C1=O [Example 545, 2-Butyl-5-[3-(3-trifluoromethyl-phenyl)-1H-pyrazol-4-ylmethoxy]-2,3-dihydro-isoindol-1-one]
10 | < 1000 | CCCC(=O)c1ccc(NCc2c[nH]nc2-c2ccc(C(F)(F)F)cc2)cc1 [Example 42]
11 | 1000 to 10000 | CCCC(=O)c1ccc(NCc2cn(-c3ccccc3)nc2-c2ccncc2)cc1 [Example 214, 1-{4-[(1-Phenyl-3-pyridin-4-yl-1H-pyrazol-4-ylmethyl)-amino]-phenyl}-butan-1-one]
12 | 1000 to 10000 | CCCC(=O)c1ccc(NCc2cc(-c3ccccc3F)no2)cc1 [Example 255, 1-(4-{[3-(2-Fluorophenyl)-isoxazol-5-ylmethyl]-amino}-phenyl)-butan-1-one]
13 | < 1000 | O=C(c1ccc(OCc2c[nH]nc2-c2cccc(C(F)(F)F)c2)cc1)C1CCCC1 [Example 442, Cyclopentyl-{4-[3-(3-trifluoromethyl-phenyl)-1H-pyrazol-4-ylmethoxy]-phenyl}-methanone]
14 | < 1000 | O=C1c2ccc(OCc3c[nH]nc3-c3ccccc3)cc2CN1CCCC(F)(F)F [Example 553, 5-(3-Phenyl-1H-pyrazol-4-ylmethoxy)-2-(4,4,4-trifluoro-butyl)-2,3-dihydro-isoindol-1-one]
15 | 1000 to 10000 | CCCC(=O)c1ccc(NCc2ccc(CC)s2)cc1 [Example 9, 1-{4-[(5-Ethylthiophen-2-ylmethyl)amino]phenyl}butan-1-one]
16 | 1000 to 10000 | CN(C)c1ccc(N(Cc2cccnc2)S(=O)(=O)CC(F)(F)F)cc1 [Example 385, 2,2,2-Trifluoro-ethanesulfonic acid (4-dimethylamino-phenyl)-pyridin-3-ylmethyl-amide]
17 | < 1000 | CCCCN1Cc2cc(OCc3c[nH]nc3-c3cccc(F)c3)ccc2C1=O [Example 550, 2-Butyl-5-[3-(3-fluorophenyl)-1H-pyrazol-4-ylmethoxy]-2,3-dihydro-isoindol-1-one]

Row | EC50 [nM] | Structure (SMILES)
18 | 1000 to 10000 | CN(C)C(=O)c1ccc(NCc2c[nH]nc2-c2cccc(C(F)(F)F)c2)cc1 [Example 433, N,N-Dimethyl-4-{[3-(3-trifluoromethyl-phenyl)-1H-pyrazol-4-ylmethyl]-amino}-benzamide]
19 | 1000 to 10000 | CCCC(=O)c1ccc(NCc2c(C(F)(F)F)nn(C)c2Cl)cc1 [Example 53, 1-(4-{[5-Chloro-1-methyl-3-(trifluoromethyl)-1H-pyrazol-4-yl]methylamino}phenyl)butan-1-one]
20 | 1000 to 10000 | CCCC(=O)c1ccc(NCc2ccncc2-c2ccccc2)cc1 [Example 524, 1-{4-[(3-Phenyl-pyridin-4-ylmethyl)-amino]-phenyl}-butan-1-one]
21 | 1000 to 10000 | O=C(c1ccc(NCc2c[nH]nc2-c2ccc(C(F)(F)F)cc2)cc1)C(F)(F)F [Example 506, 2,2,2-Trifluoro-1-(4-{[3-(4-trifluoromethyl-phenyl)-1H-pyrazol-4-ylmethyl]-amino}-phenyl)-ethanone]
22 | < 1000 | O=C1c2ccc(OCc3c[nH]nc3-c3cccc(F)c3)cc2CN1CC(F)(F)F [Example 571, 5-[3-(3-Fluorophenyl)-1H-pyrazol-4-ylmethoxy]-2-(2,2,2-trifluoro-ethyl)-2,3-dihydro-isoindol-1-one]
23 | < 1000 | CCC(=O)c1ccc(OCc2c[nH]nc2-c2ccc(C(F)(F)F)cc2)cc1 [Example 489, 1-{4-[3-(4-Trifluoromethyl-phenyl)-1H-pyrazol-4-ylmethoxy]-phenyl}-propan-1-one]
24 | < 1000 | O=C1c2ccc(OCc3c[nH]nc3-c3ccc(Cl)c(Cl)c3)cc2CN1CCCC(F)(F)F [Example 554, 5-[3-(3,4-dichloro-phenyl)-1H-pyrazol-4-ylmethoxy]-2-(4,4,4-trifluoro-butyl)-2,3-dihydro-isoindol-1-one]
25 | 1000 to 10000 | CC(=O)c1ccc(OCc2c[nH]nc2-c2ccc(C(F)(F)F)cc2)cc1 [Example 483, 1-{4-[3-(4-Trifluoromethyl-phenyl)-1H-pyrazol-4-ylmethoxy]-phenyl}-ethanone]
26 | < 1000 | CN1Cc2cc(OCc3c[nH]nc3-c3ccc(C(F)(F)F)cc3)ccc2C1=O [Example 573, 2-Methyl-5-[3-(4-trifluoromethyl-phenyl)-1H-pyrazol-4-ylmethoxy]-2,3-dihydro-isoindol-1-one]
27 | 1000 to 10000 | CC(=O)c1ccc(OCc2c[nH]nc2-c2ccc(C(F)(F)F)cc2)cc1C [Example 487, 1-{2-Methyl-4-[3-(4-trifluoromethyl-phenyl)-1H-pyrazol-4-ylmethoxy]-phenyl}-ethanone]
28 | 1000 to 10000 | CC(=O)c1ccc2c(c1)CCN2Cc1c[nH]nc1-c1ccc(C(F)(F)F)cc1 [Example 507, 1-{1-[3-(4-Trifluoromethyl-phenyl)-1H-pyrazol-4-ylmethyl]2,3-dihydro1H-indol-5-yl}-ethanone]
29 | 1000 to 10000 | CCCC(=O)c1ccc(NCc2c(C)nn(-c3ccccc3)c2C)cc1 [Example 56, 1-{4-[(3,5-Dimethyl-1-phenyl-1H-pyrazol-4-ylmethyl)amino]phenyl}butan-1-one]
30 | 1000 to 10000 | CCCC(=O)c1ccc(NCc2cnn3ccccc23)cc1 [Example 529, 1-{4-[(Pyrazolo[1,5-a]pyridin-3-ylmethyl)-amino]-phenyl}-butan-1-one]
31 | 1000 to 10000 | CCCC(=O)c1ccc(NCc2n[nH]nc2-c2ccccc2)cc1 [Example 519]
32 | 1000 to 10000 | Cc1cc(C)nc(NCc2c[nH]nc2-c2ccc(C(F)(F)F)cc2)c1 [Example 341, (4,6-Dimethyl-pyridin-2-yl)-[3-(4-trifluoromethyl-phenyl)-1H-pyrazol-4-ylmethyl]-amine]
33 | < 1000 | CCCC(=O)c1ccc(NCc2c[nH]nc2-c2ccc(O)cc2)cc1 [Example 76, 1-(4-{[3-(4-Hydroxyphenyl)-1H-pyrazol-4-ylmethyl]amino}phenyl)butan-1-one]
